From patent US11306078B2, “Piperidine CXCR7 receptor modulators” (IDORSIA PHARMACEUTICALS LTD., priority 2016, dated 2022)
pIC50: −log10 of the molar value.

The compounds below were run against human chemokine receptor CXCR7 (Homo sapiens (Human), UniProt P25106) (assay: Tango CXCR7-bla U2OS beta-arrestin recruitment assay (beta-lactamase reporter, FRET), antagonism of CXCL12/SDF1-α). Settings: antagonistic effect on CXCR7; Tango CXCR7-bla U2OS cells, CXCL12/SDF1-α at its EC80.
Type: cell-based
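Also: compounds preincubated 15 min before CXCL12 addition, then 22 h at 37 °C, FRET emission ratio read with CCF4-AM substrate after 2 h.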

Chain of human chemokine receptor CXCR7 (P25106 whole entry): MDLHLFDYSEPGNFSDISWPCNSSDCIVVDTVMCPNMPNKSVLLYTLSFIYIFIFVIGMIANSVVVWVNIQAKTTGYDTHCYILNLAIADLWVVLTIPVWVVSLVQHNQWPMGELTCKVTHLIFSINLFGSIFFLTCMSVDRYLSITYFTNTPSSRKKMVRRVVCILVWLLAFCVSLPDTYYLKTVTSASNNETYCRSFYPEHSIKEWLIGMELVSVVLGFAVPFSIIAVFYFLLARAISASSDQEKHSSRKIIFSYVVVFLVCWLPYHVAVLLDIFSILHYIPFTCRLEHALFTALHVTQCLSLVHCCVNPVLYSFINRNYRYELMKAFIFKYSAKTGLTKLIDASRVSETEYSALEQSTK

Compound | pIC50
O=C(N[C@H]1CCN(CC2CC2)C[C@@H]1C(=O)NC1(c2ncccn2)CC1)c1cn(-c2c(F)cc(F)cc2F)nn1 [Example 7.012, (3S,4S)-1-Cyclopropylmethyl-4-{[1-(2,4,6-trifluoro-phenyl)-1H-[1,2,3]triazole-4-carbonyl]-amino}-piperidine-3-carboxylic acid (1-pyrimidin-2-yl-cyclopropyl)-amide] | 6.45
O=C(N[C@H]1CCN(CC2CC2)C[C@@H]1C(=O)NC1(c2ncccn2)CC1)c1cc(-c2ccc(F)c(F)c2)on1 [Example 7.013, (3S,4S)-1-Cyclopropylmethyl-4-{[5-(3,4-difluoro-phenyl)-isoxazole-3-carbonyl]-amino}-piperidine-3-carboxylic acid (1-pyrimidin-2-yl-cyclopropyl)-amide] | 6.60
O=C(N[C@H]1CCN(CC2CC2)C[C@@H]1C(=O)NC1(c2ncccn2)CC1)c1cc(-c2ccc(F)cc2F)ns1 [Example 7.014, (3S,4S)-1-Cyclopropylmethyl-4-{[3-(2,4-difluoro-phenyl)-isothiazole-5-carbonyl]-amino}-piperidine-3-carboxylic acid (1-pyrimidin-2-yl-cyclopropyl)-amide] | 6.20
O=C(N[C@H]1CCN(CC2CC2)C[C@@H]1C(=O)NC1(c2ncccn2)CC1)c1cc(-c2ccc(F)cc2F)sn1 [Example 7.015, (3S,4S)-1-Cyclopropylmethyl-4-{[5-(2,4-difluoro-phenyl)-isothiazole-3-carbonyl]-amino}-piperidine-3-carboxylic acid (1-pyrimidin-2-yl-cyclopropyl)-amide] | 6.70
O=C(N[C@H]1CCN(CC2CC2)C[C@@H]1C(=O)NC1(c2ncccn2)CC1)c1nnc(-c2ccc(F)cc2F)s1 [Example 7.016, (3S,4S)-1-Cyclopropylmethyl-4-{[5-(2,4-difluoro-phenyl)-[1,3,4]thiadiazole-2-carbonyl]-amino}-piperidine-3-carboxylic acid (1-pyrimidin-2-yl-cyclopropyl)-amide] | 8.70
(3R*,4R*)-1-Cyclohexyl-4-{[1-(2,4-difluoro-phenyl)-1H-[1,2,3]triazole-4-carbonyl]-amino}-piperidine-3-carboxylic acid ((1R*,2S*)-2-phenyl-cyclopropyl)-amide and (3R*,4R*)-1-Cyclohexyl-4-{[1-(2,4-difluoro-phenyl)-1H-[1,2,3]triazole-4-carbonyl]-amino}-piperidine-3-carboxylic acid ((1S*,2R*)-2-phenyl-cyclopropyl)-amide [Example 1.145] | 6.44
(3R*,4R*)-1-Cyclohexyl-4-{[3-(2,4-difluoro-phenyl)-isoxazole-5-carbonyl]-amino}-piperidine-3-carboxylic acid ((1S*,2R)-2-phenyl-cyclopropyl)-amide and (3R*,4R*)-1-Cyclohexyl-4-{[3-(2,4-difluoro-phenyl)-isoxazole-5-carbonyl]-amino}-piperidine-3-carboxylic acid ((1R*,2S*)-2-phenyl-cyclopropyl)-amide [Example 1.147] | 6.35
(3R*,4R*)-1-Cyclopentyl-4-{[1-(2,4-difluoro-phenyl)-1H-[1,2,3]triazole-4-carbonyl]-amino}-piperidine-3-carboxylic acid ((1S*,2R*)-2-phenyl-cyclopropyl)-amide and (3R*,4R*)-1-Cyclopentyl-4-{[1-(2,4-difluoro-phenyl)-1H-[1,2,3]triazole-4-carbonyl]-amino}-piperidine-3-carboxylic acid ((1R*,2S*)-2-phenyl-cyclopropyl)-amide [Example 1.146] | 6.04
(3R*,4R*)-1-Cyclopentyl-4-{[3-(2,4-difluoro-phenyl)-isoxazole-5-carbonyl]-amino}-piperidine-3-carboxylic acid ((1S*,2R*)-2-phenyl-cyclopropyl)-amide and (3R*,4R*)-1-Cyclopentyl-4-{[3-(2,4-difluoro-phenyl)-isoxazole-5-carbonyl]-amino}-piperidine-3-carboxylic acid ((1R*,2S*)-2-phenyl-cyclopropyl)-amide [Example 1.148] | 6.11
(3R*,4R*)-1-Cyclopropylmethyl-4-{[3-(2,4-difluoro-phenyl)-isoxazole-5-carbonyl]-amino}-piperidine-3-carboxylic acid ((1S*,2R*)-2-phenyl-cyclopropyl)-amide and (3R*,4R*)-1-Cyclopropylmethyl-4-{[3-(2,4-difluoro-phenyl)-isoxazole-5-carbonyl]-amino}-piperidine-3-carboxylic acid ((1R*,2S*)-2-phenyl-cyclopropyl)-amide [Example 1.164] | 6.57
rac-(3R*,4R*)-1-Cyclohexyl-4-{[5-(2-difluoro-phenyl)-oxazole-2-carbonyl]-amino}-piperidine-3-carboxylic acid (1-pyridin-2-yl-cyclopropyl)-amide [Example 3.011] | 7.66

Same assay, conditions: antagonistic effect on CXCR7; Tango CXCR7-bla U2OS cells; CXCL12/SDF1-α at its EC80; geometric mean

Compound | pIC50
O=C(N[C@H]1CCN(CC2CC2)C[C@@H]1C(=O)NC1(c2ncccn2)CC1)c1cc(-c2ccccc2)on1 [Reference Example 3, (3S,4S)-1-Cyclopropylmethyl-4-[(5-phenyl-isoxazole-3-carbonyl)-amino]-piperidine-3-carboxylic Acid (1-pyrimidin-2-yl-cyclopropyl)-amide, reference compound] | 5.88
